Assays:
[1] = Pharmacokinetic profile in mice after oral gavage; format: in vivo, mouse; settings: mouse; fasted male Hilltop mice, 10 mg/kg oral gavage, plasma; read-out: Cmax
In short: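 Fasted 8-week male Hilltop mice given 10 mg/kg orally in 20% PEG400/80% 0.5% CMC + 0.25% Tween-80. EDTA plasma sampled 0-4 h, measured by LC-MS/MS (MRM, positive ion); Cmax and AUC derived non-compartmentally, values being means of three mice.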

Mouse STC-1 cells = assay: STC-1 GLP-1 assay (GLP-1 secretion); format: cell-based; settings: Mouse STC-1 cells, GLP-1 secretion, 2 h; read-out: Mouse STC-1 HTRF GLP-1 Activity (EC50)
Description: Compounds of the present invention were evaluated for their ability to induce GLP-1 production in mouse intestinal neuroendocrine tumor cells.
Mouse STC-1 cells were cultured and maintained in high glucose DMEM (Sigma #5796) supplemented with 15% horse serum, 5% Fetal Bovine Serum (FBS), 1%° penicillin/streptomycin, and 2 mM L-alanine L-glutamine (GlutaMax). Two days prior to analysis of GLP-1 secretion cells were harvested using Accutase (Sigma), spun down then resuspended in high glucose DMEM media containing 2 mM L-alanine L-glutamine (GlutaMax), 10% charcoal-dextran stripped FBS, and 50 μg/mL Gentamicin, at a density of 100,000° cells/mL. 100 μL of cell suspension was added to each well of a 96-well Poly-D-Lysine coated culture plate (Sigma; cat #2382493) and was incubated at 37° C. with 5% CO2.
Compounds were initially diluted in 100% DMSO (12-point serial dilution by half logs) in a 96-well plate and then were further diluted 1:500 in Hanks' Balanced Salt Solution (HBSS) containing protease inhibitor cocktail, DPP-IV inhibitor, and 0.1% fatty acid free bovine serum albumin. On the day of the experiment cells were washed once with HBSS. After wash, 100 μL of test compound was added to each well. The plate was incubated at 37° C. with 5% CO2 for 2° h. Supernatants were collected and GLP-1 secretion was measured using the Cisbio™ Active GLP-1 HTRF Assay Kit (CisBio). Briefly, Anti-GLP-1-d2 conjugate and Anti-GLP-1 Terbium Cryptate conjugate stock solutions were prepared as per kit instructions. The two solutions were pre-mixed and 10 μL were transferred to a 384-well low volume plate (Greiner; cat #784075). 10 μL of collected supernatants were added to wells already containing the conjugate solution. The plate was covered and incubated at room temperature overnight. The plate was read on an Envision™ plate reader (PerkinElmer).
In Table 53, EC50 values were obtained from the STC-1 GLP-1 production assay for compounds of the present invention are summarized.

Compound | Cmax [1] | EC50 (Mouse STC-1 cells)
N#Cc1ccc(CCNC(=O)[C@@H]2CCN2c2cc(N3CCC(CCCC(=O)O)CC3)nc(C(F)(F)F)n2)cc1 [Compound 231, (S)-4-(1-(6-(2-((4-cyanophenethyl)carbamoyl)azetidin-1-yl)-2-(trifluoromethyl)pyrimidin-4-yl)piperidin-4-yl)butanoic acid] | 28 ng/mL | 100 to 999 nM
N#Cc1ccc(CCNC(=O)[C@@H]2CCN2c2cc(N3CCC(CCNC(=O)NCCOCCNC(=O)CS(=O)(=O)O)CC3)nc(C(F)(F)F)n2)cc1 [Compound 356, (S)-1-(1-(6-(2-((4-cyanophenethyl)carbamoyl)azetidin-1-yl)-2-(trifluoromethyl)pyrimidin-4-yl)piperidin-4-yl)-4,12-dioxo-8-oxa-3,5,11-triazatridecane-13-sulfonic acid] | 8.4 ng/mL | 100 to 999 nM
N#Cc1ccc(CCNC(=O)[C@@H]2CCCN2c2cc(N3CCC(CCCC(=O)NCCS(=O)(=O)O)CC3)cc(C(F)(F)F)n2)cc1 [Compound 199, (S)-2-(4-(1-(2-(2-((4-cyanophenethyl)carbamoyl)pyrrolidin-1-yl)-6-(trifluoromethyl)pyridin-4-yl)piperidin-4-yl)butanamido)ethanesulfonic acid] | 1 ng/mL | < 100 nM
N#Cc1ccc(CCNC(=O)[C@@H]2CCN2c2cc(N3CCC(CCNC(=O)NCCOCCNC(=O)NCCS(=O)(=O)O)CC3)nc(C(F)(F)F)n2)cc1 [Compound 358, (S)-15-(1-(6-(2-((4-cyanophenethyl)carbamoyl)azetidin-1-yl)-2-(trifluoromethyl)pyrimidin-4-yl)piperidin-4-yl)-4,12-dioxo-8-oxa-3,5,11,13-tetraazapentadecane-1-sulfonic acid] | 3.4 ng/mL | < 100 nM
COc1cc(C(F)(F)F)ccc1CCNC(=O)[C@@H]1CCCN1c1cc(N2CCC(CCCC(=O)O)CC2)nc(C(F)(F)F)n1 [Compound 34] | 31 ng/mL | < 100 nM
CN(C)CCC1CCN(c2cc(N3CCC[C@H]3C(=O)NCCc3ccc(C(F)(F)F)cc3)nc(C(F)(F)F)n2)CC1 [Compound 5] | 338 ng/mL | 100 to 999 nM
N#Cc1ccc(CCNC(=O)[C@@H]2CCN2c2cc(N3CCC(CCCC(=O)NCCCCNC(=N)N)CC3)nc(C(F)(F)F)n2)cc1 [Compound 283, (S)-N-(4-cyanophenethyl)-1-(6-(4-(4-((4-guanidinobutyl)amino)-4-oxobutyl)piperidin-1-yl)-2-(trifluoromethyl)pyrimidin-4-yl)azetidine-2-carboxamide] | 2.7 ng/mL | 100 to 999 nM
N#Cc1ccc(CCNC(=O)[C@@H]2CCN2c2cc(N3CCC(CCNC(=O)NCCNC(=N)N)CC3)nc(C(F)(F)F)n2)cc1 [Compound 286, (S)-N-(4-cyanophenethyl)-1-(6-(4-(2-(3-(2-guanidinoethyl)-ureido)ethyl)piperidin-1-yl)-2-(trifluoromethyl)pyrimidin-4-yl)azetidine-2-carboxamide] | 5.2 ng/mL | 100 to 999 nM
N#Cc1ccc(CCNC(=O)[C@@H]2CCCN2c2cc(N3CCC(CCCC(=O)O)CC3)cc(C(F)(F)F)n2)cc1 [Compound 197, (S)-4-(1-(2-(2-((4-cyanophenethyl)carbamoyl)pyrrolidin-1-yl)-6-(trifluoromethyl)pyridin-4-yl)piperidin-4-yl)butanoic acid] | 143 ng/mL | < 100 nM
N#Cc1ccc(CCNC(=O)[C@@H]2CCCN2c2cc(N3CCC(CCCC(=O)NCC(=O)O)CC3)nc(C(F)(F)F)n2)cc1 [Compound 103, (S)-2-(4-(1-(6-(2-((4-cyanophenethyl)carbamoyl)pyrrolidin-1-yl)-2-(trifluoromethyl)pyrimidin-4-yl)piperidin-4-yl)butanamido)acetic acid] | 9.3 ng/mL | < 100 nM
N#Cc1ccc(CCNC(=O)[C@@H]2CCN2c2cc(N3CCC(CCNS(=O)(=O)CCNC(=O)[C@@H](N)CS(=O)(=O)O)CC3)nc(C(F)(F)F)n2)cc1 [Compound 363, (R)-2-amino-3-((2-(N-(2-(1-(6-((S)-2-((4-cyanophenethyl)carbamoyl)azetidin-1-yl)-2-(trifluoromethyl)pyrimidin-4-yl)piperidin-4-yl)ethyl)sulfamoyl)ethyl)amino)-3-oxopropane-1-sulfonic acid] | 0.5 ng/mL | < 100 nM
N#Cc1ccc(CCNC(=O)[C@@H]2CCCN2c2cc(N3CCC(CCC(=O)NCCS(=O)(=O)O)CC3)nc(C(F)(F)F)n2)cc1 [Compound 56, (S)-2-(3-(1-(6-(2-((4-cyanophenethyl)carbamoyl)pyrrolidin-1-yl)-2-(trifluoromethyl)pyrimidin-4-yl)piperidin-4-yl)propanamido)ethanesulfonic acid] | 14 ng/mL | 100 to 999 nM
N#Cc1ccc(CCNC(=O)[C@@H]2CCCN2c2cc(N3CCC(CCCC(=O)NCCNc4ncc(C(=O)NCCS(=O)(=O)O)cn4)CC3)nc(C(F)(F)F)n2)cc1 [Compound 112, (S)-2-(2-((2-(4-(1-(6-(2-((4-cyanophenethyl)carbamoyl)pyrrolidin-1-yl)-2-(trifluoromethyl)pyrimidin-4-yl)piperidin-4-yl)butanamido)ethyl)amino)-pyrimidine-5-carboxamido)ethanesulfonic acid] | 1.1 ng/mL | < 100 nM
N#Cc1ccc(CCNC(=O)[C@@H]2CCN2c2cc(N3CCC(CCCC(=O)NCCNC(=N)N)CC3)nc(C(F)(F)F)n2)cc1 [Compound 282, (S)—N-(4-cyanophenethyl)-1-(6-(4-(4-((2-guanidinoethyl)amino)-4-oxobutyl)piperidin-1-yl)-2-(trifluoromethyl)pyrimidin-4-yl)azetidine-2-carboxamide] | 4.2 ng/mL | 100 to 999 nM
N#Cc1ccc(CCNC(=O)[C@@H]2CCCN2c2cc(N3CCC(CCCC(=O)NCS(=O)(=O)O)CC3)cc(C(F)(F)F)n2)cc1 [Compound 198, (S)-(4-(1-(2-(2-((4-cyanophenethyl)carbamoyl)pyrrolidin-1-yl)-6-(trifluoromethyl)pyridin-4-yl)piperidin-4-yl)butanamido)methanesulfonic acid] | 6.8 ng/mL | 100 to 999 nM
O=C(CCCC1CCN(c2cc(N3CCC[C@H]3C(=O)NCCc3ccc(C(F)(F)F)cc3)nc(C(F)(F)F)n2)CC1)NCCCS(=O)(=O)O [Compound 60, (S)-3-(4-(1-(2-(trifluoromethyl)-6-(2-((4-(trifluoromethyl)phenethyl)carbamoyl)pyrrolidin-1-yl)pyrimidin-4-yl)piperidin-4-yl)butanamido)propane-1-sulfonic acid] | 4.3 ng/mL | < 100 nM
N#Cc1ccc(CCNC(=O)[C@@H]2CCN2c2cc(N3CCC(CCCC(=O)NC[C@@H](O)[C@H](O)[C@@H](O)[C@@H](O)CO)CC3)nc(C(F)(F)F)n2)cc1 [Compound 260, (S)—N-(4-cyanophenethyl)-1-(6-(4-(4-oxo-4-(((2R,3S,4S,5S)-2,3,4,5,6-pentahydroxyhexyl)amino)butyl)piperidin-1-yl)-2-(trifluoromethyl)pyrimidin-4-yl)azetidine-2-carboxamide] | 3.2 ng/mL | 100 to 999 nM
N#Cc1ccc(CCNC(=O)[C@@H]2CCN2c2cc(N3CCC(CCNc4c(NCCS(=O)(=O)O)c(=O)c4=O)CC3)nc(C(F)(F)F)n2)cc1 [Compound 297, (S)-2-((2-((2-(1-(6-(2-((4-cyanophenethyl)carbamoyl)azetidin-1-yl)-2-(trifluoromethyl)pyrimidin-4-yl)piperidin-4-yl)ethyl)amino)-3,4-dioxocyclobut-1-en-1-yl)amino)ethanesulfonic acid] | 11 ng/mL | 100 to 999 nM
N#Cc1ccc(CCNC(=O)[C@@H]2CCCN2c2cc(N3CCC(OCC#CCS(=O)(=O)O)CC3)nc(C(F)(F)F)n2)cc1 [Compound 134, (S)-4-((1-(6-(2-((4-cyanophenethyl)carbamoyl)pyrrolidin-1-yl)-2-(trifluoromethyl)pyrimidin-4-yl)piperidin-4-yl)oxy)but-2-yne-1-sulfonic acid] | 22 ng/mL | 100 to 999 nM
N#Cc1ccc(CCNC(=O)[C@@H]2CCCN2c2cc(N3CCC(CCCC(=O)NCCS(=O)(=O)NCC(=O)O)CC3)nc(C(F)(F)F)n2)cc1 [Compound 115, (S)-2-(2-(4-(1-(6-(2-((4-cyanophenethyl)carbamoyl)pyrrolidin-1-yl)-2-(trifluoromethyl)pyrimidin-4-yl)piperidin-4-yl)butanamido)-ethylsulfonamido)acetic acid] | 2.7 ng/mL | < 100 nM
